From ChEMBL document CHEMBL1833884, “Discovery of a brain-penetrant S1P₃-sparing direct agonist of the S1P₁ and S1P₅ receptors efficacious at low oral dose” (J Med Chem, 2011)
Active and inactive are the calls of the source. The rule behind the calls is not given here.

Columns and labels:
[1] = biological target: T1, Sphingosine 1-phosphate receptor 1 (Homo sapiens, UniProt P21453); test: Agonist activity at human S1P1 receptor expressed in CHO-K1 EDG1 cells expressing beta-arrestin 2 after 105 mins by chemi-luminescence assay; format: functional, cell-based
T1 sequence (P21453 whole entry): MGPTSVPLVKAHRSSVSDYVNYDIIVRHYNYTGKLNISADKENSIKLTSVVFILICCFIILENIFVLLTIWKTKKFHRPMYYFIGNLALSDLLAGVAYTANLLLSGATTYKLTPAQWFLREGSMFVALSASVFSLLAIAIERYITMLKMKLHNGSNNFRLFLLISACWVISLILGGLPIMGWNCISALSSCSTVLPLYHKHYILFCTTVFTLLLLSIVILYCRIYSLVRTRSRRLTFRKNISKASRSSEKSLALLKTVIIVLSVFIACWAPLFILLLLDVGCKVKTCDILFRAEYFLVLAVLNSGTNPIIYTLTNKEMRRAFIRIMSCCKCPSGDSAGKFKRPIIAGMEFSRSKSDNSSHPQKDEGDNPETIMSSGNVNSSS

Rattus norvegicus [2] = test: Lymphopenic activity in Lewis rat assessed as reduction in blood lymphocyte counts at 1 mg/kg, po; format: functional; design: scale not given: the % may be the effect or the level left
[3] = Chromatographic hydrophobicity index, log D of the compound at pH 7.4; format: physicochemical; settings: buffer
[4] = Dissociation constant, pKa of the compound; format: physicochemical
[5] = Blood clearance in CD rat at 1 mg/kg, iv; format: ADME, organism-based; design: dose 1 mg/kg, route intravenous
[6] = Volume of distribution at steady state in CD rat at 1 mg/kg, iv; format: ADME, organism-based; design: dose 1 mg/kg, route intravenous; settings: in vivo, read-out: Vdss
[7] = Half life in CD rat at 1 mg/kg, iv; format: ADME, organism-based; design: dose 1 mg/kg, route intravenous; settings: in vivo
[8] = biological target: T2, Sphingosine 1-phosphate receptor 3 (Homo sapiens, UniProt Q99500); test: Agonist activity at human S1P3 receptor expressed in RBL cells assessed as [35S]GTPgammaS binding after 3 hrs by radiometric assay; format: functional, cell-based
T2 sequence (Q99500 whole entry): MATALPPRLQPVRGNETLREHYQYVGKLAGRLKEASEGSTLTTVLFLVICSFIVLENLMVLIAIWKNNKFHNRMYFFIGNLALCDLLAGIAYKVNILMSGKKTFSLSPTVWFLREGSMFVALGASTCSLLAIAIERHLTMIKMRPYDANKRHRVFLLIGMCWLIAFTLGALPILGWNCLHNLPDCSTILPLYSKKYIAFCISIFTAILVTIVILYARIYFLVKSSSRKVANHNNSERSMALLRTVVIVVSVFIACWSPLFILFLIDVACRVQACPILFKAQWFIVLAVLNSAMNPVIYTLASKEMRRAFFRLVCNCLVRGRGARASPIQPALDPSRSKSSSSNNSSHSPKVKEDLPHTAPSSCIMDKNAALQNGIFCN

[9] = biological target: Voltage-gated inwardly rectifying potassium channel KCNH2 (Homo sapiens, UniProt Q12809)
Sequence of Voltage-gated inwardly rectifying potassium channel KCNH2 (Q12809 whole entry): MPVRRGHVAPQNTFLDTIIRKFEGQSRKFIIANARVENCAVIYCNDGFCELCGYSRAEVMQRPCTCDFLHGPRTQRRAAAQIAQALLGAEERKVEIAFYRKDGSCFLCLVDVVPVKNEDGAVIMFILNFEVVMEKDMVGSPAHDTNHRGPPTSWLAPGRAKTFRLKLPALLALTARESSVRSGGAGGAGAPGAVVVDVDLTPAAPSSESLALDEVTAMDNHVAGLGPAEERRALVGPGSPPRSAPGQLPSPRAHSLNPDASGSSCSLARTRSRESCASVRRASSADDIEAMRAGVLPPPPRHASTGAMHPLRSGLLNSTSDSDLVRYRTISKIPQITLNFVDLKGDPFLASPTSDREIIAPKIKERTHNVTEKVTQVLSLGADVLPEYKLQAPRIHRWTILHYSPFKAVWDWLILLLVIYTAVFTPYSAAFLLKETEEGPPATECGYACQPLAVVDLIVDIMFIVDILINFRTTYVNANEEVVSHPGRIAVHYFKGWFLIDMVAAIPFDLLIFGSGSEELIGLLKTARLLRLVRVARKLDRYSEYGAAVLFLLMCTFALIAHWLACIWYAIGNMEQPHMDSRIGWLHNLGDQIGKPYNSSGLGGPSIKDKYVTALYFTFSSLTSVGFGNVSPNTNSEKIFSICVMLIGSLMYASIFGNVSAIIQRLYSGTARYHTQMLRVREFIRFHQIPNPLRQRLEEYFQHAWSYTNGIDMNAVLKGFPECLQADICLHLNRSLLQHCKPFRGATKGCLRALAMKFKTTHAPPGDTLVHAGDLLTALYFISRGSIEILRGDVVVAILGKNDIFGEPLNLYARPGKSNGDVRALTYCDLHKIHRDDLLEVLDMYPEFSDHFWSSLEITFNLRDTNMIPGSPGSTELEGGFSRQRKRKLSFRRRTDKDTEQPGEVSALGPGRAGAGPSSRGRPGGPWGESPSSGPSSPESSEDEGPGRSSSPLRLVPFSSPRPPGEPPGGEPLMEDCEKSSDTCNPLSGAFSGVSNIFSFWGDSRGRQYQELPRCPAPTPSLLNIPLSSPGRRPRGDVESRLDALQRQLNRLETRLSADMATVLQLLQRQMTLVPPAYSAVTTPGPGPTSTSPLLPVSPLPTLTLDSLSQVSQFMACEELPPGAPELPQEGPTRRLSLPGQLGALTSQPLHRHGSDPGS

[10] = Oral bioavailability in CD rat at 3 mg/kg; format: ADME, organism-based; settings: in vivo
[11] = biological target: T3, Sphingosine 1-phosphate receptor 4 (Homo sapiens) (UniProt O95977); test: Agonist activity at human S1P4 expressed in CHO-K1 aequorin cells assessed as calcium accumulation of by luminescence assay in presence of cofactor coelenterazine relative to control; format: functional, cell-based
T3 sequence (whole entry): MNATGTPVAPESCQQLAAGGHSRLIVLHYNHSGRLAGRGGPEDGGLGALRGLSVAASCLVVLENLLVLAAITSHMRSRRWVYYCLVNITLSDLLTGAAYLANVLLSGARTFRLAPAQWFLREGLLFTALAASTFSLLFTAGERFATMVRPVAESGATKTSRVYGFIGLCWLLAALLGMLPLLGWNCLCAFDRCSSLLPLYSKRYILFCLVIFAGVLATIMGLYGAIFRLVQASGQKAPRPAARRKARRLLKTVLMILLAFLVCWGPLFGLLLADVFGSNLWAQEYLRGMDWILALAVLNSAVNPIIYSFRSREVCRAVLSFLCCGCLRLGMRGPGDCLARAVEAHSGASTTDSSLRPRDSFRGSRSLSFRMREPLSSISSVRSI

[12] = biological target: T2, Sphingosine 1-phosphate receptor 3; test: Agonist activity at human S1P3 receptor expressed in RBL cells assessed as [35S]GTPgammaS binding after 3 hrs by radiometric assay relative to control; format: functional, cell-based
[13] = biological target: T4, Sphingosine 1-phosphate receptor 5 (Homo sapiens, UniProt Q9H228); test: Agonist activity at human S1P5 receptor expressed in CHO-K1 aequorin cells assessed as calcium accumulation of by luminescence assay in presence of cofactor coelenterazine; format: functional, cell-based
T4 sequence (Q9H228 whole entry): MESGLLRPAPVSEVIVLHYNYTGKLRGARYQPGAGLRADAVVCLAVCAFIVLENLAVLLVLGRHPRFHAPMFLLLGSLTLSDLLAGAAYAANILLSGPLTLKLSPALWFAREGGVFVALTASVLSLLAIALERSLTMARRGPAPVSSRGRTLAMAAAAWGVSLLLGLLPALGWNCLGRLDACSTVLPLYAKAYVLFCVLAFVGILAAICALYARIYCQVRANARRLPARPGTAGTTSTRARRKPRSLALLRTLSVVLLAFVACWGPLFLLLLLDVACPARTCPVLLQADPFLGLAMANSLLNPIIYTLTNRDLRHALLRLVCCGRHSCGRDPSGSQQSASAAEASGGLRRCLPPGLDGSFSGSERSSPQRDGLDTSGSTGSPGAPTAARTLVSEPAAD

[14] = system: MDR1 (P-glycoprotein), human; test: Efflux ratio of permeability in dog MDCK2 cells expressing human MDR1; format: ADME, cell-based, Canis lupus familiaris, MDCK-II; settings: MDCK-MDR1
[15] = biological target: T5, Sphingosine 1-phosphate receptor 4 (Homo sapiens, UniProt O95977); test: Agonist activity at human S1P4 expressed in CHO-K1 aequorin cells assessed as calcium accumulation of by luminescence assay in presence of cofactor coelenterazine; format: functional, cell-based
T5 sequence (O95977 whole entry): T3 sequence (whole entry)

[16] = biological target: T4, Sphingosine 1-phosphate receptor 5; test: Agonist activity at human S1P5 receptor expressed in CHO-K1 aequorin cells assessed as calcium accumulation of by luminescence assay in presence of cofactor coelenterazine relative to control; format: functional, cell-based
[17] = biological target: T6, Sphingosine 1-phosphate receptor 2 (Homo sapiens, UniProt O95136); test: Agonist activity at human S1P2 receptor expressed in yeast MMY24 assessed as conversion of FDGlu to fluorescein after 24 hrs relative to control; format: functional
T6 sequence (O95136 whole entry): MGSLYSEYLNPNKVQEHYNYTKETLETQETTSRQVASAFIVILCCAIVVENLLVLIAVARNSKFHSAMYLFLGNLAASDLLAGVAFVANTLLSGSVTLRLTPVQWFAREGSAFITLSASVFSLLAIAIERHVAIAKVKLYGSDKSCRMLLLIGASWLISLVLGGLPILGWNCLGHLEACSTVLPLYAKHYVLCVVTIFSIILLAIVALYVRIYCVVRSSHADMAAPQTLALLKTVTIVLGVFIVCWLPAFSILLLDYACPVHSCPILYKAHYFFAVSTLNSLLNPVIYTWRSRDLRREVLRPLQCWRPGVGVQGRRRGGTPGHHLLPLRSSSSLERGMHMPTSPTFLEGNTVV

[18] = biological target: T1, Sphingosine 1-phosphate receptor 1; test: Agonist activity at human S1P1 receptor expressed in CHO-K1 EDG1 cells expressing beta-arrestin 2 after 105 mins by chemi-luminescence assay relative to control; format: functional, cell-based
[19] = biological target: T6, Sphingosine 1-phosphate receptor 2; test: Agonist activity at human S1P2 receptor expressed in yeast MMY24 assessed as conversion of FDGlu to fluorescein after 24 hrs; format: functional
[20] = Bioavailability in CD rat at 1 mg/kg, […]; format: ADME, organism-based; settings: in vivo
hERG (KCNH2) = hERG (KCNH2) (Homo sapiens, UniProt Q12809); test: Inhibition of human ERG at 30 uM
Sequence of hERG (KCNH2) (Q12809 whole entry): as the sequence (Q12809 whole entry) above

Rattus norvegicus [21] = test: Metabolic stability of the compound in Lewis rat at 1 mg/kg, po; format: ADME, organism-based; design: dose 1 mg/kg, route oral; settings: in vivo
Cytochrome P450 2D6 = Cytochrome P450 2D6 (Homo sapiens, UniProt P10635); test: Inhibition of CYP2D6; format: ADME
Sequence of Cytochrome P450 2D6 (P10635 whole entry): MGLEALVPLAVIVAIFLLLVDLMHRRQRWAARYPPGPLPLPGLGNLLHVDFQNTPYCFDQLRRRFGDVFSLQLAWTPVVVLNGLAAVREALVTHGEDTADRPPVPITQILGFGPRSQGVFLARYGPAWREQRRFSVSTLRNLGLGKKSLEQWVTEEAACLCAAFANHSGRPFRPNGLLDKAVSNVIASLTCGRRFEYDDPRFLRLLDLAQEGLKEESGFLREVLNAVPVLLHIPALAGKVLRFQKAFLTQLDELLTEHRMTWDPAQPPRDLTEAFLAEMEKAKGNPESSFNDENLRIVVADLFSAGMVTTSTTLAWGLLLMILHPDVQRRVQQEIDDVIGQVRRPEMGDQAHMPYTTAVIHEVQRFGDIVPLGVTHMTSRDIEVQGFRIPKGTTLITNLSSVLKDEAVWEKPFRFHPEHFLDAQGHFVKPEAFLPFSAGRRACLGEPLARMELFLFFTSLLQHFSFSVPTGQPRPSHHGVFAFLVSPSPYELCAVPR

Cytochrome P450 2C9 = Cytochrome P450 2C9 (Homo sapiens, UniProt P11712); test: Inhibition of CYP2C9; format: ADME
[22] = Oral bioavailability in Beagle dog at 1 mg/kg; format: ADME, organism-based, Canis lupus familiaris; settings: in vivo
Cytochrome P450 2C19 = Cytochrome P450 2C19 (Homo sapiens, UniProt P33261); test: Inhibition of CYP2C19; format: ADME
Hepatocyte [23] = test: Intrinsic clearance in rat hepatocytes; format: ADME, cell-based, Liver
Hepatocyte [24] = test: Intrinsic clearance in mouse hepatocytes; format: ADME, cell-based, Liver
[25] = Intrinsic clearance in dog hepatocytes; format: ADME, cell-based, Canis lupus familiaris, Liver, Hepatocyte
[26] = Oral bioavailability in CD rat at 1 mg/kg; format: ADME, organism-based; settings: in vivo
[27] = Solubility of the compound in fed state simulated intestinal fluid; format: physicochemical; settings: simulated gi fluid
[28] = Ratio of drug level in brain to blood in CD rat at 0.8 mg/kg/hr, iv measured up to 7 hrs; format: ADME, organism-based; design: route intravenous
[29] = Chromatographic hydrophobicity index, log D of the compound at pH 2.0; format: physicochemical; settings: buffer
[30] = Half life in Beagle dog at 1 mg/kg, iv; format: ADME, organism-based, Canis lupus familiaris; design: dose 1 mg/kg, route intravenous; settings: in vivo
[31] = Blood clearance in Beagle dog at 1 mg/kg, iv; format: ADME, organism-based, Canis lupus familiaris; design: dose 1 mg/kg, route intravenous
[32] = Volume of distribution at steady state in Beagle dog at 1 mg/kg, iv; format: ADME, organism-based, Canis lupus familiaris; design: dose 1 mg/kg, route intravenous; settings: in vivo, read-out: Vdss
Cytochrome P450 3A4 [33] = biological target: T7, Cytochrome P450 3A4 (Homo sapiens, UniProt P08684); test: Inhibition of CYP3A4 using vivid red as substrate; format: ADME
T7 sequence (P08684 whole entry): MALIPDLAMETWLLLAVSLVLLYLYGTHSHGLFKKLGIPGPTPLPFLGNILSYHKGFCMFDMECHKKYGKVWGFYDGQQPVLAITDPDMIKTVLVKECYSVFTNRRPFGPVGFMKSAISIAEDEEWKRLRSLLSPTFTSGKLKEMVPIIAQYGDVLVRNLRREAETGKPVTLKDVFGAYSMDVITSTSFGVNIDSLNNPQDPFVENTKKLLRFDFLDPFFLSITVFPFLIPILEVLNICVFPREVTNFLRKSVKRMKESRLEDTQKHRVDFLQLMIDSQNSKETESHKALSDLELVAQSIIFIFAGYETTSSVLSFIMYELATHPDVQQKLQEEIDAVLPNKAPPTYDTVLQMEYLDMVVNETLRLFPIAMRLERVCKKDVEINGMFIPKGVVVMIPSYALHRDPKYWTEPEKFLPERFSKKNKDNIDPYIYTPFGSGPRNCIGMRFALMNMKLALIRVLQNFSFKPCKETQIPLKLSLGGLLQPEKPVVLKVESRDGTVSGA

Rattus norvegicus [34] = test: Lymphopenic activity in Lewis rat assessed as reduction in blood lymphocyte counts at 0.3 mg/kg, po; format: functional, organism-based; design: dose 0.3 mg/kg
[35] = Chromatographic hydrophobicity index, log D of the compound at pH 10.5; format: physicochemical; settings: buffer
Cytochrome P450 3A4 [36] = biological target: T7, Cytochrome P450 3A4; test: Inhibition of CYP3A4 using vivid green as substrate; format: ADME
Hepatocyte [37] = test: Intrinsic clearance in human hepatocytes; format: ADME, cell-based, Liver
[38] = Intrinsic clearance in cynomolgus monkey hepatocytes; format: ADME, cell-based, Macaca fascicularis, Liver, Hepatocyte
[39] = Plasma protein binding in CD rat at 1 mg/kg, iv; format: ADME, organism-based; design: dose 1 mg/kg, route intravenous; settings: read-out: PPB
Plasma = test: Fraction unbound in CD rat plasma; format: ADME, cell-free

## CC(C)Oc1ccc(-c2nc(-c3cccc4c3OCCN(C(CO)CO)C4)no2)cc1C#N
[1]
  EC50: 0.02 µM
Rattus norvegicus [2]
  Activity: 60%
[3]
  chromatographic logD: 2.41
[4]
  pKa: 6.03
[5]
  clearance: 14 mL/min/kg
[6]
  Vd: 3.3 L/kg
[7]
  half-life: 3.5 h
[8]
  EC50: > 31.6 µM

## Cc1c(-c2noc(-c3ccc(OC(C)C)c(C#N)c3)n2)cnc2c1CCN(C(CO)CO)C2
[1]
  EC50: 0.02 µM
Rattus norvegicus [2]
  Activity: 70%
[3]
  chromatographic logD: 2
[4]
  pKa: 6.22
[5]
  clearance: 21 mL/min/kg
[6]
  Vd: 3.3 L/kg
[7]
  half-life: 2.1 h
[9]
  IC50: 12.6 µM
[10]
  bioavailability: 37%
[8]
  EC50: > 100 µM

## Cc1c(-c2noc(-c3ccc(OC(C)C)c(C#N)c3)n2)ccc2c1CCN(CCC(=O)O)C2
[11]
  Emax: 3%
[1]
  EC50: 0.00562 µM
[12]
  Emax: 35%
[13]
  EC50: 0.162 µM
[14]
  efflux ratio: 6
[15]
  EC50: > 41.7 µM
[16]
  Emax: 77%
[17]
  Emax: 1%
[18]
  Emax: 94%
[8]
  EC50: > 31.6 µM
[19]
  EC50: > 33.1 µM

## CC(C)Oc1ccc(-c2nc(-c3ccc4c(c3)CCN(C(CO)CO)CC4)no2)cc1C#N
[1]
  EC50: 0.02 µM
Rattus norvegicus [2]
  Activity: 88%
[3]
  chromatographic logD: 2.74
[4]
  pKa: 7.81
[5]
  clearance: 21 mL/min/kg
[6]
  Vd: 7.6 L/kg
[7]
  half-life: 5.3 h
[9]
  IC50: 17.8 µM
[20]
  bioavailability: 68%
hERG (KCNH2)
  inhibition at 30 µM: 59%
[8]
  EC50: 15.8 µM

## CC(C)Oc1ccc(-c2nc(-c3ccc4c(c3)CCN(C(CO)CO)C4)no2)cc1C#N
[1]
  EC50: 0.00794 µM
Rattus norvegicus [2]
  Activity: 49%
[3]
  chromatographic logD: 2.49
[4]
  pKa: 7.28
[5]
  clearance: 87 mL/min/kg
[6]
  Vd: 3.7 L/kg
[7]
  half-life: 0.6 h
[9]
  IC50: 20 µM
[8]
  EC50: 6.31 µM

## Cc1c(-c2noc(-c3ccc(OC(C)C)c(C#N)c3)n2)ccc2c1CCN(CC(=O)N[C@@H](C)CO)C2
[1]
  EC50: 0.00126 µM
Rattus norvegicus [2]
  Activity: 90%
[3]
  chromatographic logD: 3.04
[4]
  pKa: 6.07
[5]
  clearance: 32 mL/min/kg
[6]
  Vd: 4.4 L/kg
[7]
  half-life: 2 h
[9]
  IC50: > 10 µM
Rattus norvegicus [21]
  Stability: Unstable
[10]
  bioavailability: 38%
hERG (KCNH2)
  inhibition at 30 µM: 43%
[8]
  EC50: 25.1 µM

## CCCCCCCCc1ccc(CC[C@](N)(CO)COP(=O)(O)O)cc1 [FTY720-P]
[11]
  Emax: 48%
[12]
  Emax: 62%
[15]
  EC50: 0.2 µM
[16]
  Emax: 7.2%
[18]
  Emax: 99%

## Cc1c(-c2noc(-c3ccc(OC(C)C)c(C#N)c3)n2)ccc2c1CCN(C(CO)CO)C2
Cytochrome P450 2D6
  IC50: > 50 µM
Cytochrome P450 2C9
  IC50: 4.3 µM
[1]
  EC50: 0.00316 µM
Rattus norvegicus [2]
  Activity: 96%
[3]
  chromatographic logD: 2.64
[22]
  bioavailability: 45%
Cytochrome P450 2C19
  IC50: > 50 µM
Hepatocyte [23]
  CL: 3 mL/min/g
Hepatocyte [24]
  CL: 1.3 mL/min/g
[25]
  CL: 30 mL/min/g
[4]
  pKa: 7.3
[26]
  bioavailability: 52%
[27]
  solubility: > 1 µg/mL
[5]
  clearance: 60 mL/min/kg
[6]
  Vd: 4.1 L/kg
[7]
  half-life: 1 h
[9]
  IC50: 12.9 µM
[13]
  EC50: 0.02 µM
[28]
  Kp at 7 h: 1.87
[29]
  chromatographic logD: 0.98
[30]
  half-life: 3 h
[31]
  clearance: 29 mL/min/kg
[32]
  Vd: 7 L/kg
Cytochrome P450 3A4 [33]
  IC50: 15.3 µM
[10]
  bioavailability: 52%
hERG (KCNH2)
  inhibition at 30 µM: 58%
Rattus norvegicus [34]
  Activity: Active
[35]
  chromatographic logD: 2.99
[8]
  EC50: > 31.6 µM
Cytochrome P450 3A4 [36]
  IC50: 8.4 µM
Hepatocyte [37]
  CL: 2 mL/min/g
[38]
  CL: 1.3 mL/min/g

## CC(C)Oc1ncc(-c2nc(-c3ccc4c(c3)CCNCC4)no2)cc1C#N
[1]
  EC50: 0.02 µM
[3]
  chromatographic logD: 2.65
[39]
  fraction unbound: < 0.05
[4]
  pKa: 9.69
[5]
  clearance: 20 mL/min/kg
[6]
  Vd: 9.7 L/kg
[7]
  half-life: 6.3 h
[9]
  IC50: 3.16 µM
[29]
  chromatographic logD: 1.34
[10]
  bioavailability: 70%
Plasma
  Fu: 0.25%
[35]
  chromatographic logD: 3.73
[8]
  EC50: > 31.6 µM
